ChEMBL document CHEMBL1153780, “Synthesis and antibacterial activity of some new thiazole and thiophene derivatives” (2009)
In brackets after ≈: the same amount, converted by molar mass.

Legend:
Format in all cases: functional
Escherichia coli [1] = test: Antibacterial activity against Escherichia coli at 2 mg/ml by agar diffusion method; settings: read-out: DIZ
Bacillus thuringiensis [2] = test: Antibacterial activity against Bacillus thuringiensis at 2 mg/ml by agar diffusion method; settings: read-out: DIZ
Bacillus thuringiensis [3] = test: Antibacterial activity against Bacillus thuringiensis by twofold serial broth dilution method
Escherichia coli [4] = test: Antibacterial activity against Escherichia coli by twofold serial broth dilution method

SMILES	MIC (Bacillus thuringiensis [3]) [µg/mL]	MIC (Escherichia coli [4]) [µg/mL]	zone of inhibition at 2000 µg/mL (Escherichia coli [1]) [mm]	zone of inhibition at 2000 µg/mL (Bacillus thuringiensis [2]) [mm]
N#C/C(C(=O)N1NC(=O)C2C3c4ccccc4C(c4ccccc43)C2C1=O)=C1\SC(=O)CN1c1ccccc1 (stereo unspecified)			18	17
N#C/C(C(=O)N1NC(=O)C2C3c4ccccc4C(c4ccccc43)C2C1=O)=C1\SCCN1c1ccccc1 (stereo unspecified)	12.5 (≈ 24.1 µM)	50 (≈ 96.4 µM)	15	22
N#C/C(C(=O)N1NC(=O)C2C3c4ccccc4C(c4ccccc43)C2C1=O)=c1\sc(=O)/c(=C2\C(=O)Nc3ccccc32)n1-c1ccccc1 (stereo unspecified)			15	15
COc1ccc(/C=c2\c(=O)s/c(=C(\C#N)C(=O)N3NC(=O)C4C5c6ccccc6C(c6ccccc65)C4C3=O)n2-c2ccccc2)cc1 (stereo unspecified)			13	11
CC(=O)c1sc(Nc2ccccc2)c(C(=O)N2NC(=O)C3C4c5ccccc5C(c5ccccc54)C3C2=O)c1N (stereo unspecified)			13	15
O=C1NN(c2nc(-c3ccccc3)c(Br)s2)C(=O)C2C3c4ccccc4C(c4ccccc43)C12 (stereo unspecified)			12	
N#C/C(C(=O)N1NC(=O)C2C3c4ccccc4C(c4ccccc43)C2C1=O)=c1\sc(=O)c(=C2C(=O)c3ccccc3C2=O)n1-c1ccccc1 (stereo unspecified)	50 (≈ 74.1 µM)	12.5 (≈ 18.5 µM)	25	19
O=C1NN(c2nc(-c3ccccc3)cs2)C(=O)C2C3c4ccccc4C(c4ccccc43)C12 (stereo unspecified)	12.5 (≈ 27.8 µM)	50 (≈ 111 µM)	15	23
O=C1CSC(N2NC(=O)C3C4c5ccccc5C(c5ccccc54)C3C2=O)=N1 (stereo unspecified)	12.5 (≈ 32.1 µM)	12.5 (≈ 32.1 µM)	26	24
Nc1c(C(=O)c2ccccc2)sc(Nc2ccccc2)c1C(=O)N1NC(=O)C2C3c4ccccc4C(c4ccccc43)C2C1=O (stereo unspecified)	50 (≈ 81.9 µM)	12.5 (≈ 20.5 µM)	20	17
Cc1csc(N2NC(=O)C3C4c5ccccc5C(c5ccccc54)C3C2=O)n1 (stereo unspecified)	6 (≈ 15.5 µM)	50 (≈ 129 µM)	16	40
N#C/C(C(=O)N1NC(=O)C2C3c4ccccc4C(c4ccccc43)C2C1=O)=C1/Nc2ccccc2S1 (stereo unspecified)	6 (≈ 12.2 µM)	12.5 (≈ 25.5 µM)	26	30

Further lines, with some results ahead:

MIC (Bacillus thuringiensis [3]) [µg/mL]	MIC (Escherichia coli [4]) [µg/mL]	SMILES	zone of inhibition at 2000 µg/mL (Escherichia coli [1]) [mm]	zone of inhibition at 2000 µg/mL (Bacillus thuringiensis [2]) [mm]
12.5 (≈ 23.6 µM)	12.5 (≈ 23.6 µM)	CC1=CS/C(=C(\C#N)C(=O)N2NC(=O)C3C4c5ccccc5C(c5ccccc54)C3C2=O)N1c1ccccc1 (stereo unspecified)	30	28
50 (≈ 93.9 µM)	12.5 (≈ 23.5 µM)	N#C/C(C(=O)N1NC(=O)C2C3c4ccccc4C(c4ccccc43)C2C1=O)=C1\SCCCN1c1ccccc1 (stereo unspecified)	25	19
12.5 (≈ 25.4 µM)	12.5 (≈ 25.4 µM)	N#C/C(C(=O)N1NC(=O)C2C3c4ccccc4C(c4ccccc43)C2C1=O)=C(\S)Nc1ccccc1 (stereo unspecified)	22	22
50 (≈ 145 µM)	12.5 (≈ 36.2 µM)	CN(C)/C=N/N1C(=O)C2C3c4ccccc4C(c4ccccc43)C2C1=O (stereo unspecified)	21	20
12.5 (≈ 38.7 µM)	12.5 (≈ 38.7 µM)	O=C(N[C@H](CO)[C@H](O)c1ccc([N+](=O)[O-])cc1)C(Cl)Cl [CHLORAMPHENICOL]	19	23
	12.5 (≈ 23.5 µM)	N#Cc1sc(Nc2ccccc2)c(C(=O)N2NC(=O)C3C4c5ccccc5C(c5ccccc54)C3C2=O)c1N (stereo unspecified)	20	
12.5 (≈ 23.5 µM)	12.5 (≈ 23.5 µM)	N#C/C(C(=O)N1NC(=O)C2C3c4ccccc4C(c4ccccc43)C2C1=O)=C1\SCC(=O)N1c1ccccc1 (stereo unspecified)	26	24
12.5 (≈ 35.8 µM)	12.5 (≈ 35.8 µM)	CC1(C)S[C@@H]2[C@H](NC(=O)[C@H](N)c3ccccc3)C(=O)N2[C@H]1C(=O)O [AMPICILLIN]	19	18
6 (≈ 10.1 µM)	6 (≈ 10.1 µM)	N#C/C(C(=O)N1NC(=O)C2C3c4ccccc4C(c4ccccc43)C2C1=O)=C1\SC=C(c2ccccc2)N1c1ccccc1 (stereo unspecified)	40	39
